What was measured:
[1] = Inhibition of bovine Ras FPTase; set-up: species or system Bos taurus
Squalene synthase = molecular target: T1, Squalene synthase (Rattus norvegicus, UniProt Q02769); assay: Inhibition of rat liver squalene synthase by liqiud scintillation counting
T1 sequence (Q02769 whole entry): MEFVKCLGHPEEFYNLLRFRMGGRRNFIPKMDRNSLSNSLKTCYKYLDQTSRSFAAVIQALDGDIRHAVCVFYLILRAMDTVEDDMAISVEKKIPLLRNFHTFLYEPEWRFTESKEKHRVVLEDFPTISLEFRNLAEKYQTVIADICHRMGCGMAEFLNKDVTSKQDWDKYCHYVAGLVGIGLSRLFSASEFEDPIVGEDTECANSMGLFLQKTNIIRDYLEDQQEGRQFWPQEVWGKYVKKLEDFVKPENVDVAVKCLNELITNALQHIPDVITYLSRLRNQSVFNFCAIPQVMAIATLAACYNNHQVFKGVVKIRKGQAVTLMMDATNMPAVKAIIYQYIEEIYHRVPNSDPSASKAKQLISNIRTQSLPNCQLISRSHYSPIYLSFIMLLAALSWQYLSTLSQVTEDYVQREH

| Structure (SMILES) | IC50 [1] [nM] | IC50 (Squalene synthase) [nM] |
| --- | --- | --- |
| C/C=C/CCCC/C=C/CCCCC(=O)O[C@@H]1[C@@H](O)[C@@]2(CCC(C)C(O)C(C)C/C=C/c3ccccc3)O[C@H](C(=O)O)[C@@](O)(C(=O)O)[C@]1(C(=O)O)O2 (some centres undefined) [ZARAGOZIC ACID B] | 1000 | 0.2 |
| CCCCCCCCCC(=O)O[C@@H]1[C@@H](O)[C@@]2(CCCC(OC(C)=O)C(C)C/C=C/c3ccccc3)O[C@H](C(=O)O)[C@@](O)(C(=O)O)[C@]1(C(=O)O)O2 (some centres undefined) [ZARAGOZIC ACID D2] | 100 | 2 |
| C=C(CC[C@]12O[C@H](C(=O)O)[C@@](O)(C(=O)O)[C@](C(=O)O)(O1)[C@H](OC(=O)/C=C/[C@@H](C)C[C@@H](C)CC)[C@H]2O)[C@@H](OC(C)=O)[C@H](C)Cc1ccccc1 [ZARAGOZIC ACIDS A] | 250 | – |

Results, then the molecule that gave them:

| IC50 [1] [nM] | IC50 (Squalene synthase) [nM] | Structure (SMILES) |
| --- | --- | --- |
| 150 | 0.4 | CC(=O)O[C@H](CCC[C@]12O[C@H](C(=O)O)[C@@](O)(C(=O)O)[C@](C(=O)O)(O1)[C@H](OC(=O)CC/C=C/[C@H](C)CCCc1ccccc1)[C@H]2O)[C@H](C)Cc1ccccc1 [ZARAGOZIC ACID C] |
| 100 | 6 | CCCCCCCC(=O)O[C@@H]1[C@@H](O)[C@@]2(CCCC(OC(C)=O)C(C)C/C=C/c3ccccc3)O[C@H](C(=O)O)[C@@](O)(C(=O)O)[C@]1(C(=O)O)O2 (some centres undefined) [ZARAGOZIC ACID D] |

From ChEMBL document CHEMBL1147394, “Zaragozic acids D and D2: potent inhibitors of squalene synthase and of Ras farnesyl-protein transferase” (J Nat Prod, 1993)
